# Data published in patent EP3095872A1, “A METHOD OF PRODUCING ALPHA AMINO ACIDS” (Evonik Degussa GmbH, priority 2015, dated 2016).
# Where two headings read alike, the source gives them in different places. Marks after values point to notes of the source that are not given here.
# Key:
# [1] = test system: leucine-DH; experiment: deamination of L-norleucine and L-leucine using leucine-DH, NADH formation at 340 nm; assay type: biochemical; settings: 10 mM substrate; 10 mM NAD+; pH 8.5; UV absorption at 340 nm
# Protocol: Deamination of L-norleucine and L-leucine (both commercial standards) was performed using a purified leucine-DH. Reactions contained 10 mM substrate, 10 mM NAD+ and 5 µl leucine-DH in a final volume of 1 ml Tris-HCl (pH 8.5, 0.1 M). Oxidation of the amino acids was successful as indicated by increasing UV absorption at 340 nm, corresponding to (concomitant) formation of NADH (Figure 3).
# [2] = target: T1, CYPBSß (Bacillus subtilis, UniProt O31440); experiment: conversion of fatty acid substrates with CYPBSß, oxidant H2O2; assay type: biochemical; settings: for 2a-d: H2O2; for Conversion: 3 µM P450BSß, KPi pH 7.0, 24 h, values marked a based on substrate depletion
# T1 construct: made in house
# Protocol: (§1) P450Cla was ordered as synthetic gene and cloned into the pET28a expression vector. […] The dialysis buffer was supplemented with 300 mM NaCl to prevent precipitation of P450Cla. Next, hydroxylation of fatty acid substrates 1a-d (scheme 2) was performed employing purified P450Cla and P450BSß. The oxidant source was varied in case of P450Cla while only H2O2 was used with P450BSß.
# Reaction conditions for P450BSß: 3µM P450BSß; KPi buffer (pH 7.0; 0.1 M); 5 % EtOH (cosolvent). […] All products were identified by GC-MS and/or comparison with authentic materials.
# (§2) All reactions were performed in closed glass vials for 24 h reaction time at RT with 170 rpm shaking. The reactions were quenched by addition of 100 µl 5 N HCl. Extractions were performed with 500 µl EtOAc containing 0.1 % 1-decanol as internal standard. After drying over Na2SO4, derivatization of acids to corresponding methyl esters was realized by mixing 150 µl of organic phase with 90µl of MeOH prior to supplementation of 20 µl of TMSCHN2 for esterification. Samples were analyzed by GC-FID and GC-MS. Commercial standards of 2-hydroxycaproic acid (2a), 2-hydroxyoctanoic acid (2b) and 2-oxooctanoic acid (4b) were used as references. Calibration curves were obtained from standards 1a-d and 2a-b prepared identically to the reaction mixtures (5 concentration points from 10 µM to 1 mM).
# [3] = test system: P450Cla; experiment: conversion of fatty acid substrates 1a-d with P450Cla, oxidant H2O2; assay type: biochemical; settings: for 2a-d: H2O2; for Conversion: 3 µM P450Cla, 24 h, RT, values marked a based on substrate depletion
# Protocol: as §1
# Reaction conditions for P450Cla: 3µM P450Cla; Tris-HCl (pH 7.5; 0.1 M); 2.5 to 5 % EtOH (cosolvent for the substrate).
# as §2
# [4] = test system: D/L-HICDH-YcnD; experiment: oxidation/dehydrogenation of alpha-hydroxy acids 2a-b using D/L-HICDH with NADH-oxidase YcnD; assay type: biochemical; settings: 10 mM substrate; with YcnD and catalase; KPi pH 7.5; 1 mM NAD+ (also 6.75 mM); RT, 24 h
# [5] = target: YcnD (Bacillus subtilis, UniProt P94424); experiment: oxidation/dehydrogenation of alpha-hydroxy acids 2a-b, YcnD alone; settings: 10 mM substrate; YcnD without HICDH; KPi pH 7.5; RT, 24 h
# [6] = test system: D/L-HICDH; experiment: oxidation/dehydrogenation of alpha-hydroxy acids 2a-b using D/L-HICDH; assay type: biochemical; settings: 10 mM substrate; KPi pH 7.5; 1 mM NAD+ (also 6.75 mM); RT, 24 h
# [7] = test system: L- and D-HICDH; experiment: oxidation of alpha-hydroxy acids with L- and D-HICDH, NADH formation at 340 nm; assay type: biochemical; settings: for NADH concentration: after 1 min reaction time, estimated (Figure 2); for Oxidation of the α-hydroxy acid substrates: 1 or 10 mM substrate, 10 mM NAD+, pH 8.5, UV absorption at 340 nm
# Protocol: A modified protocol for oxidation of 2-hydroxy acids with L-and D-HICDH was established allowing oxidation of 2-hydroxyhexanoic acid and 2-hydroxyoctanoic acid (both commercial standards) that are produced in step 1 of the cascade (Scheme 1). Reactions contained 1 or 10 mM substrate, 1 % DMSO, 10 mM NAD+ and 0.25 mg of L- and D-HICDH (cell free freeze-dried lysates) in a final volume of 1 ml Tris-HCl (pH 8.5, 0.1 M). Oxidation of the α-hydroxy acid substrates was successful as indicated by increasing UV absorption at 340 nm, corresponding to (concomitant) formation of NADH (Figure 2).
# [8] = test system: P450Cla; experiment: alpha-hydroxylation of selected fatty acids, catalytic and kinetic characterization of P450Cla; assay type: biochemical; settings: for specific activity U mg^-1: P450Cla 48 kDa, values only relevant at initial rate; for Coupling*: mol product per mol H2O2; for Product: 10 mM fatty acid, 0.5 µM P450Cla (C10), 1 µM (C8, C6), Tris-HCl pH 7.5, RT, triplicate
# Protocol: Hydroxylation of selected fatty acids was carried out using a fresh preparation of purified P450Cla. P450Cla was characterised for key catalytic parameters specific activities were determined for three selected substrates as shown in Table 1. Table 1: Catalytic and kinetic characterization of P450Cla for conversion of 10 mM of selected fatty acids. All reactions were performed in triplicate.
# Conditions: 0.5 µM P450Cla used in reactions with C10; 1 µM P450Cla used in reactions with C8 and C6; All reactions were performed in Tris-HCl (pH 7.5, 0.1 M) at RT and 170 rpm shaking in closed glass vials; *molProduct^-1 molH2O2^-1; ^§molecular weight of P450Cla is 48 kDa, values only relevant at initial rate.
# [9] = test system: P450Cla, L- and D-HICDH, leucine-DH; experiment: three-step one-pot cascade of fatty acid to amino acid (TLC ninhydrin, GC-MS); assay type: biochemical
# Protocol: Hydroxylation of all four fatty acid substrates (C4, C6, C8, C10) was performed as described above using 3 µM P450Cla, 10 mM substrate and 2.5 % EtOH in a final volume of 1 ml Tris-HCl (pH 7.5, 0.1 M). H2O2 was supplemented every 30 min (23 times; 36.8 mM total). After 24 h, the hydroxylation reaction (step 1) was stopped by adding 1200 U catalase (1 mg), 20µl of (NH4)2SO4(2.5 M stock) and the pH was adjusted to 8.5 using 1 M NaOH. For step 2 and 3 of the cascade, Land D-HICDH (0.25 mg), 10 mM NAD+ and 5 µl purified leucine-DH were added to the reaction mixture. After 24 h reaction time, 2 µl of the reaction volume were spotted on a TLC plate along with a commercial standard of L-norleucine as reference material (positive control). After elution of products acetic acid/H2O/n-butanol as mobile phase (1:1:3), the plate was stained with ninhydrin and heated gently for colour development. […] The following control reactions were performed to confirm the overall success of the two step cascade leaving one of the following components out of the reaction: 1) P450; 2) L- or D-HICDH; 3) Leu-DH; 4) fatty acid substrate; 5) H2O2; 6) (NH4)2SO4; 7) NAD+. The reaction samples were analyzed by TLC as shown before, but formation of norleucine could not be detected. […]
# [10] = target: T2, P450 BM3 variant M2 (Priestia megaterium, UniProt P14779, I402M/R48S/Y52W); assay type: biochemical, Bacillus megaterium; settings: 50 mM substrate; O2 as oxidant; GDH/glucose NADPH regeneration; absent in control reactions
# T2 construct: made in house; host or cells: E. coli BL21 Gold (DE3)-derived E. coli lacIQ1 Gold (DE3)
# Protocol: Ethyl acetoxy-butanoate (EAB) was converted with P450 BM3 variant M2 employing O2 as oxidant.
# The essential NADPH cofactor was regenerated using a glucose dehydrogenase (GDH) and glucose as shown in Scheme 3. [drawing 4]
# Reactions were done in 1 mL scale (KPi-buffer, pH 7.5, 0.1 M) containing following components: • 12 U GDH • 100 mM glucose • 400 µM NADP+ • 50 mM EBA (substrate) in DMSO (5 % V/V DMSO final) • 50 mg cell free freeze dried lysate of P450 BM3 variant M2
# For analysis, 100 µl of the reaction volume were mixed with 100 µl acetonitrile followed by centrifugation to remove insoluble particles. The supernatant was diluted 1:50 in H2O/acetonitrile (50:50; V/V) followed by injection into the LC-MS.
# In addition, the product peaks elute earlier than the substrate (3.699 min) indicating a higher polarity possibly due to a hydroxylation of EAB.
# [11] = 5 mM substrate, H2O2 8 mM total
# [12] = 10 mM substrate, H2O2 16 mM total
# [13] = 5 mM substrate, H2O2 9.6 mM total
# [14] = 10 mM substrate, H2O2 19.2 mM total
# T1 sequence (O31440 whole entry): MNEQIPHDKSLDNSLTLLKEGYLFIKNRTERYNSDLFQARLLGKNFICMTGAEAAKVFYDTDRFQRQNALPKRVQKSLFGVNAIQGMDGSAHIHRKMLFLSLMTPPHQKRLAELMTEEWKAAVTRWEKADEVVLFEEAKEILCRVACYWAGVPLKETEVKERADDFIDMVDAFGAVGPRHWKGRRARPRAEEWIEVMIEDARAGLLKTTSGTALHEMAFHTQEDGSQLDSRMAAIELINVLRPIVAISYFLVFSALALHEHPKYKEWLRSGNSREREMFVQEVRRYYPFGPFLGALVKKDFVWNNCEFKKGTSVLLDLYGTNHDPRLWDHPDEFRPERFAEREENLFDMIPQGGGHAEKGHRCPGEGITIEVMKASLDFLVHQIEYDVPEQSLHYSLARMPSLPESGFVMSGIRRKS
# Chain of YcnD (P94424 whole entry): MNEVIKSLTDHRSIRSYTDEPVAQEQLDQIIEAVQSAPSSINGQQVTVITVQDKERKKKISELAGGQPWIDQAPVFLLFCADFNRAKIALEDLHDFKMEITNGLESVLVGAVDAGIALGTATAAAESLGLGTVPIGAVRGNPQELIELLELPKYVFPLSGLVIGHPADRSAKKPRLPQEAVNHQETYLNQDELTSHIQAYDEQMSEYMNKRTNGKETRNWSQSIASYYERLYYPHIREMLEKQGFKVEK
# T2 sequence (P14779 whole entry R48S/Y52W/I402M): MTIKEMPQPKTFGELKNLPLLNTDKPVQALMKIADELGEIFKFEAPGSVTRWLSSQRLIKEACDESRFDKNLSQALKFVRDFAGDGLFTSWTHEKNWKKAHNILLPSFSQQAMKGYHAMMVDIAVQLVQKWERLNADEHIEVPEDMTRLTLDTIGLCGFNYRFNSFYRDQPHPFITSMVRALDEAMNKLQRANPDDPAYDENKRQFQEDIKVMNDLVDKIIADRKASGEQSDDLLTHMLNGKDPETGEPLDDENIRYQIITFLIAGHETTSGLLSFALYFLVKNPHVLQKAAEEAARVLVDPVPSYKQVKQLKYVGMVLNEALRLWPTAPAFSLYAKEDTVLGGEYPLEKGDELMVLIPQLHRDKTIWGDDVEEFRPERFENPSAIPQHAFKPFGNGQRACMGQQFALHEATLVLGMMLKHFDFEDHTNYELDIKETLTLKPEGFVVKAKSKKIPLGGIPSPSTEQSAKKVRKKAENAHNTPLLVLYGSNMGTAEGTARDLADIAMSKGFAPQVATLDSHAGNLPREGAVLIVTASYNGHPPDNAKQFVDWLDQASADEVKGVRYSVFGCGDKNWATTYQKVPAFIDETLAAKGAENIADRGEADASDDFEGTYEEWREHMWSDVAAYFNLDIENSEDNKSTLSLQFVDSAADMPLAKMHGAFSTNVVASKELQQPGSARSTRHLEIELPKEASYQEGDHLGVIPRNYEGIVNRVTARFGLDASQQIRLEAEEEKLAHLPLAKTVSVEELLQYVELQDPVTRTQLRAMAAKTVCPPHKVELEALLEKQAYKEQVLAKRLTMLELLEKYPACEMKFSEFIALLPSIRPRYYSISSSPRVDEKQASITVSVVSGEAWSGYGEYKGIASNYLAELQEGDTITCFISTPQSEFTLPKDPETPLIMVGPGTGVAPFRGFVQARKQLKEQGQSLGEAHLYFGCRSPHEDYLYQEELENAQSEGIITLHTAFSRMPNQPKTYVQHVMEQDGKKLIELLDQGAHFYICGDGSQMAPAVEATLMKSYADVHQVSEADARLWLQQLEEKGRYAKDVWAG
compound,measurement,setting,value
CC(C)C[C@H](N)C(=O)O [L-leucine],Oxidation of the amino acids,[1],successful
CCCC[C@H](N)C(=O)O [L-norleucine],Oxidation of the amino acids,[1],successful
"CCCCCC(=O)O [Substrate 1a, hexanoic acid]",2a-d,[2]; 5 mM substrate,08 mM
same,Conversion,[2]; [11],16%
same,α/β-Regioselectivity (2a-d vs 3a-d),"[2]; 5 mM substrate, share of 2a, 3a not detected",2a >95%^e
same,2a-d,[2]; 10 mM substrate,1.1 mM
same,Conversion,[2]; [12],11%
same,α/β-Regioselectivity (2a-d vs 3a-d),"[2]; 10 mM substrate, share of 2a, 3a not detected",2a >95%^e
same,2a-d,[3]; 5 mM substrate,3.1 mM
same,Conversion,[3]; [13],62%
same,Conversion,[3]; [14],51%
same,2a-d,"[3]; 10 mM substrate, values marked c outside of calibration range",5.1^c mM
"CCCCCCCC(=O)O [Substrate 1b, octanoic acid]",Conversion,[3]; [13],96%
same,Conversion,[3]; [14],>99%
"CCCCCCCCCC(=O)O [Substrate 1c, decanoic acid]",Conversion,[2]; [11],54^a %
same,α/β-Regioselectivity (2a-d vs 3a-d),"[2]; 5 mM substrate, ratio α-hydroxy/β-hydroxy product",2c/3c 64/36
same,Conversion,[2]; [12],46^a %
same,α/β-Regioselectivity (2a-d vs 3a-d),"[2]; 10 mM substrate, ratio α-hydroxy/β-hydroxy product",2c/3c 56/44
same,Conversion,[3]; [13],>99^a %
same,Conversion,[3]; [14],>99^a %
"CCCCC(O)C(=O)O (centres unmarked) [Substrate 2a, 2-hydroxycaproic acid]",α-Ketoacid 4a/b detected [Y/N],[4],No
same,α-Ketoacid 4a/b detected [Y/N],[5],No
same,α-Ketoacid 4a/b detected [Y/N],[6],No
same,NADH concentration,[7]; 1 mM substrate,45 µM
same,NADH concentration,[7]; 10 mM substrate,142 µM
same,Oxidation of the α-hydroxy acid substrates,[7],successful
"CCCCCCC(O)C(=O)O (centres unmarked) [Substrate 2b, 2-hydroxyoctanoic acid]",α-Ketoacid 4a/b detected [Y/N],[4],Yes (traces)
same,α-Ketoacid 4a/b detected [Y/N],[5],No
same,α-Ketoacid 4a/b detected [Y/N],[6],No
same,NADH concentration,[7]; 1 mM substrate,41 µM
same,NADH concentration,[7]; 10 mM substrate,126 µM
same,Oxidation of the α-hydroxy acid substrates,[7],successful
"CCCCCC(=O)O [Substrate C6, hexanoic acid]",Selectivity [% α-OH],[8],> 90%
same,specific activity,[8],≥ 1 U mg^-1
same,Selectivity [% α-OH],"[8]; 5 min, H2O2 0.8 mM",>95%
same,TON,"[8]; 5 min, H2O2 0.8 mM",139 min⁻¹
same,TTN,"[8]; 5 min, H2O2 0.8 mM",695
same,specific activity U mg^-1,"[8]; 5 min, H2O2 0.8 mM",2.9 U mg^-1
same,Coupling*,"[8]; 5 min, H2O2 0.8 mM",87%
same,Selectivity [% α-OH],"[8]; 15 min, H2O2 0.8 mM",>95%
same,TON,"[8]; 15 min, H2O2 0.8 mM",47 min⁻¹
same,TTN,"[8]; 15 min, H2O2 0.8 mM",706
same,specific activity U mg^-1,"[8]; 15 min, H2O2 0.8 mM",1.0 U mg^-1
same,Coupling*,"[8]; 15 min, H2O2 0.8 mM",88%
same,Selectivity [% α-OH],"[8]; 30 min, H2O2 1.6 mM",>95%
same,TON,"[8]; 30 min, H2O2 1.6 mM",29 min⁻¹
same,TTN,"[8]; 30 min, H2O2 1.6 mM",880
same,specific activity U mg^-1,"[8]; 30 min, H2O2 1.6 mM",0.6 U mg^-1
same,Coupling*,"[8]; 30 min, H2O2 1.6 mM",55%
same,production of norleucine (GC-MS after derivatization),"[9]; 10 mM hexanoic acid, Figure 4",successful production of norleucine
same,"formation of norleucine / amino acid (TLC, ninhydrin staining)","[9]; 10 mM substrate, step 1 24 h, steps 2 and 3 24 h, one pot",distinct red spot
"CCCCCCCC(=O)O [Substrate C8, octanoic acid]",specific activity,[8],≥ 1 U mg^-1
same,Product,"[8]; 5 min, H2O2 0.8 mM",0.49 ± 0.02 mM
same,Product,"[8]; 15 min, H2O2 0.8 mM",0.51 ± 0.01 mM
same,Product,"[8]; 30 min, H2O2 1.6 mM",0.94 ± 0.05 mM
same,TON,"[8]; 5 min, H2O2 0.8 mM",98 min⁻¹
same,TTN,"[8]; 5 min, H2O2 0.8 mM",488
same,specific activity U mg^-1,"[8]; 5 min, H2O2 0.8 mM",2.0 U mg^-1
same,Coupling*,"[8]; 5 min, H2O2 0.8 mM",61%
same,TON,"[8]; 15 min, H2O2 0.8 mM",34 min⁻¹
same,TTN,"[8]; 15 min, H2O2 0.8 mM",506
same,specific activity U mg^-1,"[8]; 15 min, H2O2 0.8 mM",07 U mg^-1
same,Coupling*,"[8]; 15 min, H2O2 0.8 mM",63%
same,TON,"[8]; 30 min, H2O2 1.6 mM",31 min⁻¹
same,TTN,"[8]; 30 min, H2O2 1.6 mM",938
same,specific activity U mg^-1,"[8]; 30 min, H2O2 1.6 mM",0.7 U mg^-1
same,Coupling*,"[8]; 30 min, H2O2 1.6 mM",59%
Ethyl acetoxy-butanoate [EAB],products of mass 190.08+1 (LC-MS),[10],formation of two product peaks
